These results are taken from patent US12528814B2, “Bifunctional degraders of interleukin-1 receptor-associated kinases and therapeutic use thereof” (NURIX THERAPEUTICS, INC., priority 2020, dated 2026).

For test [1], the target named is T1, IRAK4 (Homo sapiens (Human), UniProt Q9NWZ3). In words: IRAK4 Biochemical HTRF Kinase Assay. To be noted: read-out: IRAK4 HTRF biochemical: IC50. The method in brief:
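HTRF KinEASE STK S1 format measuring IRAK4 phosphorylation of biotinylated peptide; reaction solution of 5 μM STK-S1, 10 mM ATP, 10 mM MgCl2 added (stock, to 10 μl final), 90 min at ambient temperature, detection 60 min. IC50 from sixteen-point duplicate curves by non-linear regression.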
Background: In TR-FRET formats the signal depends on donor and acceptor labels being close together.
Target sequence in this assay (Q9NWZ3 whole entry, species assumed): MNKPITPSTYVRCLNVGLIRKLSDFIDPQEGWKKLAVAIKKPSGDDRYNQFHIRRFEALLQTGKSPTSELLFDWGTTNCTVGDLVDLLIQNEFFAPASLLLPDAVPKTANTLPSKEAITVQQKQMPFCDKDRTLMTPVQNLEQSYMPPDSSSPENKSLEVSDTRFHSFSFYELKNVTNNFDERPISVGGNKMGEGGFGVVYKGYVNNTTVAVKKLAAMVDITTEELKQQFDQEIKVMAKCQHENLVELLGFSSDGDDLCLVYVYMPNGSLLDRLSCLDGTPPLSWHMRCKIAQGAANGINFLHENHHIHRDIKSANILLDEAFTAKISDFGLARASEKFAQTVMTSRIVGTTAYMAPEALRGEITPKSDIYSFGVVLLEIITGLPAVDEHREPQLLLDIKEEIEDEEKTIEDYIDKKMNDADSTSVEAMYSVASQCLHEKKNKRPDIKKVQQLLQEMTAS

The target of test [2] is T1, IRAK4. Nature of the test: IRAK4 Degradation HiBiT Assay. To be noted: HiBiT-tagged Jurkat cells, 4 hrs; for Dmax: Jurkat; for DC50: read-out: Cellular IRAK4 HiBiT: DC50. (In general: HiBiT is a short tag that completes a luciferase, so light tracks the accessible tagged protein.)
Target sequence in this assay (Q9NWZ3 whole entry): as the sequence (Q9NWZ3 whole entry, species assumed) above
Procedure: Compound dilution series (11-point, 3.16-fold dilutions in DMSO, columns 1-11 and 12-22) at 500× the final required concentrations were prepared in Labcyte LDV 384-well plates (cat. no. LP-0200) using a Labcyte Echo 550 Liquid Handler. The 500× solutions ranged from 5 mM to 0.5 μM (final assay concentration range 10 μM to 0.1 nM). Using the Echo, the 500× solutions were stamped into white, 384-well assay plates (Corning, cat. no. 3570) at 60 nL/well. […] C-terminal HiBiT-tagged Jurkat cells (polyclonal cell line or clone 8D5) were plated at 1×10^6 cells/mL, 30 μL/well (3×10^4 cells/well) in complete RPMI (10% FBS, 1% L-glutamine). Cells were incubated for 4 hrs at 32° C./6% CO2.
Following incubation, 30 uL of complete Nano-Glo HiBiT Lytic Detection Reagent (Nano-Glo HiBiT Lytic Buffer with 1:50 Nano-Glo HiBiT Lytic Substrate and 1:100 LgBiT Protein; Promega cat. no. N3040) was added. Cells were further incubated for 10 min at room temperature (RT). Luminescence units (LU) were read on an EnVision plate reader (Perkin Elmer, 0.1 sec per well). Percent IRAK4 remaining per sample was calculated as follows:
Using Graphpad Prism, % IRAK4 remaining values were plotted as a function of compound concentration.
The mark [3] stands for this setting: read-out: Cellular IRAK4 HiBiT: Dmax, Table 4.
[4] abbreviates: read-out: Cellular IRAK4 HiBiT: Dmax, Table 5, multiple runs.

Molecules are shown by their SMILES. pIC50: −log10 of the molar value. Like-named read-outs stand apart in the source and are kept apart here.

One may read the pIC50 as the IC50 on a negative log10 scale, so that one unit is a factor of ten. As usually defined, the Dmax is the greatest extent of degradation seen. The term DC50 denotes the concentration giving 50% degradation. `Cc1ncsc1-c1ccc(CNC(=O)[C@@H]2C[C@@H](O)CN2C(=O)[C@@H](NC(=O)C2(F)CC2)C(C)(C)C)c(OCCCCCCCCCC(=O)N2CCN(c3nnc(-c4cnc(-c5ccc6cc(C#N)cnn56)cc4NC(C)C)s3)CC2)c1` [Example 44, (2S,4R)—N-(2-((10-(4-(5-(6-(3-cyanopyrrolo[1,2-b]pyridazin-7-yl)-4-(isopropylamino)pyridin-3-yl)-1,3,4-thiadiazol-2-yl)piperazin-1-yl)-10-oxodecyl)oxy)-4-(4-methylthiazol-5-yl)benzyl)-1-((S)-2-(1-fluorocyclopropane-1-carboxamido)-3,3-dimethylbutanoyl)-4-hydroxypyrrolidine-2-carboxamide]: the pIC50 in test [1] (Table 4) was 6.15; in test [1] (Table 5, multiple runs) it was 6.15. In test [2] (setting [3]), the Dmax amounted to 33%. Further, the DC50 in test [2] (Table 4) is > 10000 nM; in test [2] (Table 5, multiple runs), > 9980 nM.

Consider `CNc1cc(-c2ccc3cc(C#N)cnn23)ncc1-c1nnc([C@H]2CC[C@H](NC(=O)[C@H]3C[C@@H](OCCNc4cccc5c4C(=O)N(C4CCC(=O)NC4=O)C5=O)C3)CC2)s1` (stereo partly drawn) [Example 69, (1s,3S)—N-((1r,4R)-4-(5-(6-(3-cyanopyrrolo[1,2-b]pyridazin-7-yl)-4-(methylamino)pyridin-3-yl)-1,3,4-thiadiazol-2-yl)cyclohexyl)-3-(2-((2-(2,6-dioxopiperidin-3-yl)-1,3-dioxoisoindolin-4-yl)amino)ethoxy)cyclobutane-1-carboxamide], for which the pIC50 in test [1] (Table 4) is 9.09; in test [1] (Table 5, multiple runs) it was 9.05. Also, the Dmax in test [2] (setting [3]) came out at 98%; in test [2] (setting [4]) it was 73%. The DC50 in test [2] (Table 4) is 12.6 nM; in test [2] (Table 5, multiple runs) it was 6.71 nM.

As for `CNc1cc(-c2ccc3cc(C#N)cnn23)ncc1-c1nnc(N2CCN(CCC3CCN(c4ccc5c(c4)C(=O)N(C4CCC(=O)NC4=O)C5=O)CC3)CC2)s1` (centres unmarked) [Example 187, 7-(5-(5-(4-(2-(1-(2-(2,6-dioxopiperidin-3-yl)-1,3-dioxoisoindolin-5-yl)piperidin-4-yl)ethyl)piperazin-1-yl)-1,3,4-thiadiazol-2-yl)-4-(methylamino)pyridin-2-yl)pyrrolo[1,2-b]pyridazine-3-carbonitrile], the pIC50 in test [1] (Table 5, multiple runs) was 9.05. Also, the Dmax in test [2] (setting [4]) came to 95%. Further, the DC50 in test [2] (Table 5, multiple runs) is 88.3 nM.

As for `CNc1cc(-c2ccc3cc(C#N)cnn23)ncc1-c1nnc([C@H]2CC[C@H](NC(=O)CCCCCNc3ccc4c(c3)C(=O)N(C3CCC(=O)NC3=O)C4=O)CC2)s1` (some centres unmarked) [Example 68, N-((1r,4r)-4-(5-(6-(3-cyanopyrrolo[1,2-b]pyridazin-7-yl)-4-(methylamino)pyridin-3-yl)-1,3,4-thiadiazol-2-yl)cyclohexyl)-6-((2-(2,6-dioxopiperidin-3-yl)-1,3-dioxoisoindolin-5-yl)amino)hexanamide], the pIC50 in test [1] (Table 4) is 8.75; in test [1] (Table 5, multiple runs) it was 9.10. The Dmax in test [2] (setting [3]) worked out at 82%; in test [2] (setting [4]), 101%. For the same compound, the DC50 in test [2] (Table 4) was 47.5 nM; in test [2] (Table 5, multiple runs), 14.3 nM.

In the case of `Cc1ncsc1-c1ccc(CNC(=O)[C@@H]2C[C@@H](O)CN2C(=O)C(NC(=O)[C@H]2CC[C@H](CN3CCN(c4nnc(-c5cnc(-c6ccc7cc(C#N)cnn67)cc5NC(C)C)s4)CC3)CC2)C(C)(C)C)cc1` (stereo partly drawn) [Example 46, (2S,4R)-1-((S)-2-((1r,4S)-4-((4-(5-(6-(3-cyanopyrrolo[1,2-b]pyridazin-7-yl)-4-(isopropylamino)pyridin-3-yl)-1,3,4-thiadiazol-2-yl)piperazin-1-yl)methyl)cyclohexane-1-carboxamido)-3,3-dimethylbutanoyl)-4-hydroxy-N-(4-(4-methylthiazol-5-yl)benzyl)pyrrolidine-2-carboxamide], the pIC50 in test [1] (Table 4) is 7.81; in test [1] (Table 5, multiple runs), 7.81. Moreover, the Dmax came out at 78% in test [2] (setting [3]) and 73% in test [2] (setting [4]). The DC50 in test [2] (Table 4) was 1570 nM; in test [2] (Table 5, multiple runs), 1240 nM.

On to `CNc1cc(-c2ccc3cc(C#N)cnn23)ncc1-c1nnc([C@H]2CC[C@H](NC(=O)CC(C)(C)C(=O)N[C@H](C(=O)N3C[C@H](O)C[C@H]3C(=O)N[C@@H](C)c3ccc(-c4scnc4C)cc3)C(C)(C)C)CC2)s1` [Example 154, N4-((1r,4S)-4-(5-(6-(3-cyanopyrrolo[1,2-b]pyridazin-7-yl)-4-(methylamino)pyridin-3-yl)-1,3,4-thiadiazol-2-yl)cyclohexyl)-N1—((S)-1-((2S,4R)-4-hydroxy-2-(((S)-1-(4-(4-methylthiazol-5-yl)phenyl)ethyl)carbamoyl)pyrrolidin-1-yl)-3,3-dimethyl-1-oxobutan-2-yl)-2,2-dimethylsuccinamide], for which the pIC50 in test [1] (Table 5, multiple runs) is 8.55. Moreover, the Dmax in test [2] (setting [4]) came out at 68%. In test [2] (Table 5, multiple runs), the DC50 is 544 nM.

Turning to `CNc1cc(-c2ccc3cc(C#N)cnn23)ncc1-c1nnc([C@H]2CC[C@H](N(C)C(=O)C[C@H](NC(=O)[C@@H]3C[C@@H](O)CN3C(=O)[C@@H](NC(=O)C3(F)CC3)C(C)(C)C)c3ccc(-c4scnc4C)cc3)CC2)s1` [Example 163, (2S,4R)—N—((S)-3-(((1r,4S)-4-(5-(6-(3-cyanopyrrolo[1,2-b]pyridazin-7-yl)-4-(methylamino)pyridin-3-yl)-1,3,4-thiadiazol-2-yl)cyclohexyl)(methyl)amino)-1-(4-(4-methylthiazol-5-yl)phenyl)-3-oxopropyl)-1-((S)-2-(1-fluorocyclopropane-1-carboxamido)-3,3-dimethylbutanoyl)-4-hydroxypyrrolidine-2-carboxamide], the pIC50 in test [1] (Table 5, multiple runs) is 9.00. The Dmax in test [2] (setting [4]) is 113%. In test [2] (Table 5, multiple runs), the DC50 was 65.9 nM.

As to `CNc1cc(-c2ccc3cc(C#N)cnn23)ncc1-c1nnc([C@H]2CC[C@H](NC(=O)COc3cc(-c4scnc4C)ccc3CNC(=O)[C@@H]3C[C@@H](O)CN3C(=O)[C@@H](NC(=O)C3(F)CC3)C(C)(C)C)CC2)s1` [Example 159, (2S,4R)—N-(2-(2-(((1r,4S)-4-(5-(6-(3-cyanopyrrolo[1,2-b]pyridazin-7-yl)-4-(methylamino)pyridin-3-yl)-1,3,4-thiadiazol-2-yl)cyclohexyl)amino)-2-oxoethoxy)-4-(4-methylthiazol-5-yl)benzyl)-1-((S)-2-(1-fluorocyclopropane-1-carboxamido)-3,3-dimethylbutanoyl)-4-hydroxypyrrolidine-2-carboxamide], in test [1] (Table 5, multiple runs), the pIC50 was 8.68. Moreover, the Dmax in test [2] (setting [4]) was 116%. Besides, the 50% degradation concentration (DC50) in test [2] (Table 5, multiple runs) is 111 nM.

As for `CNc1cc(-c2ccc3cc(C#N)cnn23)ncc1-c1nnc([C@H]2CC[C@H](NC(=O)CCOCCNc3cccc4c3C(=O)N(C3CCC(=O)NC3=O)C4=O)CC2)s1` (some centres unmarked) [Example 71, N-((1r,4r)-4-(5-(6-(3-cyanopyrrolo[1,2-b]pyridazin-7-yl)-4-(methylamino)pyridin-3-yl)-1,3,4-thiadiazol-2-yl)cyclohexyl)-3-(2-((2-(2,6-dioxopiperidin-3-yl)-1,3-dioxoisoindolin-4-yl)amino)ethoxy)propanamide], the pIC50 in test [1] (Table 4) is 9.11; in test [1] (Table 5, multiple runs), 9.10. Also, the results for the Dmax in test [2] (setting [3]) and in test [2] (setting [4]) were 93% and 52%, respectively. Besides, the DC50 in test [2] (Table 4) is 12.9 nM; in test [2] (Table 5, multiple runs), 5.87 nM.

Regarding `CNc1cc(-c2ccc3cc(C#N)cnn23)ncc1-c1nnc(C23CCC(NC(=O)C4CCN(c5ccc6c(c5)C(=O)N(C5CCC(=O)NC5=O)C6=O)CC4)(CC2)CC3)s1` (centres unmarked) [Example 134, N-(4-(5-(6-(3-cyanopyrrolo[1,2-b]pyridazin-7-yl)-4-(methylamino)pyridin-3-yl)-1,3,4-thiadiazol-2-yl)bicyclo[2.2.2]octan-1-yl)-1-(2-(2,6-dioxopiperidin-3-yl)-1,3-dioxoisoindolin-5-yl)piperidine-4-carboxamide], in test [1] (Table 5, multiple runs), the pIC50 was 9.05. For the same compound, the Dmax in test [2] (setting [4]) is 103%. The DC50 in test [2] (Table 5, multiple runs) worked out at 64.1 nM.

As for `CC(C)Nc1cc(-c2ccc3cc(C#N)cnn23)ncc1-c1nnc(N2CCC(NC(=O)C3CCN(c4ccc5c(c4)C(=O)N(C4CCC(=O)NC4=O)C5=O)CC3)CC2)s1` (centres unmarked) [Example 25, N-(1-(5-(6-(3-cyanopyrrolo[1,2-b]pyridazin-7-yl)-4-(isopropylamino)pyridin-3-yl)-1,3,4-thiadiazol-2-yl)piperidin-4-yl)-1-(2-(2,6-dioxopiperidin-3-yl)-1,3-dioxoisoindolin-5-yl)piperidine-4-carboxamide], the pIC50 in test [1] (Table 4) is 8.11; in test [1] (Table 5, multiple runs) it was 8.11. Besides, the Dmax in test [2] (setting [3]) came out at 69%; in test [2] (setting [4]), 77%. The DC50 in test [2] (Table 4) came to 188 nM; in test [2] (Table 5, multiple runs), 160 nM.

On to `CN[C@@H](C)C(=O)N[C@H](C(=O)N1C[C@@H](NC(=O)CCCCCCCCCCC(=O)N2CCN(c3nnc(-c4cnc(-c5ccc6cc(C#N)cnn56)cc4NC(C)C)s3)CC2)C[C@H]1C(=O)N[C@@H]1CCCc2ccccc21)C1CCCCC1` [Example 53, (2S,4S)-4-(12-(4-(5-(6-(3-cyanopyrrolo[1,2-b]pyridazin-7-yl)-4-(isopropylamino)pyridin-3-yl)-1,3,4-thiadiazol-2-yl)piperazin-1-yl)-12-oxododecanamido)-1-((S)-2-cyclohexyl-2-((S)-2-(methylamino)propanamido)acetyl)-N—((R)-1,2,3,4-tetrahydronaphthalen-1-yl)pyrrolidine-2-carboxamide], for which the pIC50 in test [1] (Table 4) is 8.24; in test [1] (Table 5, multiple runs) it was 8.24. Besides, the Dmax amounted to 48% in test [2] (setting [3]) and 82% in test [2] (setting [4]). Besides, the DC50 in test [2] (Table 4) was 993 nM; in test [2] (Table 5, multiple runs), 8750 nM.
